Read-outs that look alike come from different tables or passages of the source.
Columns and labels:
FGFR1 = target: T1, FGFR1 (Homo sapiens, UniProt P11362); test: Kinase binding assay (kinase-tagged T7 phage, affinity beads, qPCR), Kd; settings: read-out: FGFR1 (Kd nM)
T1 construct: made in house; host or cells: E. coli (BL21-derived), T7 phage
Description: (§1) Kinase-tagged T7 phage strains were prepared in an E. coli host derived from the BL21 strain. E. coli were grown to log-phase and infected with T7 phage and incubated with shaking at 32° C. until lysis. The lysates were centrifuged and filtered to remove cell debris. Streptavidin-coated magnetic beads were treated with biotinylated small molecule ligands for 30 minutes at room temperature to generate affinity resins for kinase assays. The liganded beads were blocked with excess biotin and washed with blocking buffer SeaBlock (Pierce), 1% BSA, 0.05% Tween 20, 1 mM DTT to remove unbound ligand and to reduce non-specific binding.
(§2) Test compounds were prepared as 111× stocks in 100% DMSO. Kds were determined using an 11-point 3-fold compound dilution series with three DMSO control points. […] The compounds were then diluted directly into the assays such that the final concentration of DMSO was 0.9%. All reactions performed in polypropylene 384-well plate. Each was a final volume of 0.02 ml. […] The kinase concentration in the eluates was measured by qPCR.
(§3) Binding constants were calculated with a standard dose-response curve using the Hill equation: […]
(§4) The Hill Slope was set to −1. Curves were fitted using a non-linear least square fit with the Levenberg-Marquardt algorithm.

FGFR3 = target: T2, FGFR3 (Homo sapiens, UniProt P22607); test: as above; settings: read-out: FGFR3 (Kd nM)
T2 construct: made in house; host or cells: E. coli (BL21-derived), T7 phage
T2 sequence (P22607 23-806): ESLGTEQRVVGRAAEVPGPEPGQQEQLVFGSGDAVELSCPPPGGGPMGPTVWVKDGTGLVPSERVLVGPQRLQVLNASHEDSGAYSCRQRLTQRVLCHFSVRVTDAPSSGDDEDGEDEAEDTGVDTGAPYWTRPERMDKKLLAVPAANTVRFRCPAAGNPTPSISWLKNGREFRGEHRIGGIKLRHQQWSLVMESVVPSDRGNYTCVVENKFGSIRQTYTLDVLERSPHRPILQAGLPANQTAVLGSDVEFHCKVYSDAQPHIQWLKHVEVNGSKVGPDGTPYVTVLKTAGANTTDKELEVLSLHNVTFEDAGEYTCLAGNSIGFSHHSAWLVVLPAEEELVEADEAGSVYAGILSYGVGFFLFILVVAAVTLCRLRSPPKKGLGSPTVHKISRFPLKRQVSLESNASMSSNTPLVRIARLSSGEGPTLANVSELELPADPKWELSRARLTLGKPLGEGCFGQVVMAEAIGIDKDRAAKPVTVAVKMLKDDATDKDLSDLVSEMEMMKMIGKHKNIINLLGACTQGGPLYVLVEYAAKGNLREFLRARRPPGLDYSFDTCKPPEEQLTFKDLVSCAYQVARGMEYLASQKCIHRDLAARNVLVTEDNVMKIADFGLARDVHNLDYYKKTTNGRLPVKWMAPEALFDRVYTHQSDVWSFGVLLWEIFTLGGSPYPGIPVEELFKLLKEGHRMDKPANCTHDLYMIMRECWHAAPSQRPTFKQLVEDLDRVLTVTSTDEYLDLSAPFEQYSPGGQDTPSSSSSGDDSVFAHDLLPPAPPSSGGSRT
Description: as §1, §2, §3, §4

[1] = kinase binding assay, 11-point 3-fold dilution series

T1 sequence (P11362 22-822): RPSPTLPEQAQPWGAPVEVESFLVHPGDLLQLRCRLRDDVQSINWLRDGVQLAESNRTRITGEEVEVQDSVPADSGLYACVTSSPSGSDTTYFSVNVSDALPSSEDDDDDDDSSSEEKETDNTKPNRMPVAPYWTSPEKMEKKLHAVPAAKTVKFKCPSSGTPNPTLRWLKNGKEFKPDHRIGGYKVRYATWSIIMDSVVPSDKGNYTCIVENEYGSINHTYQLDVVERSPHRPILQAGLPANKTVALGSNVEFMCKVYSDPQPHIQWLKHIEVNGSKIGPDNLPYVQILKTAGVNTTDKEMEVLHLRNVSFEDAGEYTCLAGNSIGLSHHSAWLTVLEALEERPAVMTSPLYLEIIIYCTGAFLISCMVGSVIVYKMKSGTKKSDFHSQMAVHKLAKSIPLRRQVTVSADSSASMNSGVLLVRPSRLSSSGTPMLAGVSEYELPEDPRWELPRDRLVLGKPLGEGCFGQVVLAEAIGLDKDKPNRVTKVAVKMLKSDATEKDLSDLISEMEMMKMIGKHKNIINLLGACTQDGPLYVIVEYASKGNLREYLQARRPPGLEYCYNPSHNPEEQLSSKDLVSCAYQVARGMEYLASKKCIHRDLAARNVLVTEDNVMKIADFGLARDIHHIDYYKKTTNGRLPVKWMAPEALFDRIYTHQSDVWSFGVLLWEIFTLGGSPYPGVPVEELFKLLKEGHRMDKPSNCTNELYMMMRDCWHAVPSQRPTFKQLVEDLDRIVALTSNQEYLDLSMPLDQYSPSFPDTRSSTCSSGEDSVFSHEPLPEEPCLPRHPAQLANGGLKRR

| Compound | Kd (FGFR1) [nM] | Kd (FGFR3) [nM] | Kd (FGFR1; [1]) [nM] | Kd (FGFR3; [1]) [nM] |
| --- | --- | --- | --- | --- |
| C[C@@H](Oc1ccc2[nH]nc(-c3cnc(N4CC(N)(C(=O)N(C)C)C4)c(F)c3)c2c1)c1c(Cl)cncc1Cl [Example 293, (R)-3-amino-1-(5-(5-(1-(3,5-dichloropyridin-4-yl)ethoxy)-1H-indazol-3-yl)-3-fluoropyridin-2-yl)-N,N-dimethylazetidine-3-carboxamide] | 1 to 50 | 1 to 50 | – | – |
| CNC(=O)C1(N)CN(c2ncc(-c3n[nH]c4ccc(O[C@H](C)c5c(Cl)cncc5Cl)cc34)cc2F)C1 [Example 296, (R)-3-amino-1-(5-(5-(1-(3,5-dichloropyridin-4-yl)ethoxy)-1H-indazol-3-yl)-3-fluoropyridin-2-yl)-N-methylazetidine-3-carboxamide] | 1 to 50 | 1 to 50 | – | – |
| COc1cc2[nH]nc(-c3cnc(N4CC(C)(N)C4)nc3)c2cc1O[C@H](C)c1c(Cl)cncc1Cl [Example 302, (R)-1-(5-(5-(1-(3,5-dichloropyridin-4-yl)ethoxy)-6-methoxy-1H-indazol-3-yl)pyrimidin-2-yl)-3-methylazetidin-3-amine] | 1 to 50 | 1 to 50 | – | – |
| C[C@@H](Oc1ccc2[nH]nc(-c3ccc(N4CC(N)(CC5CCCO5)C4)nn3)c2c1)c1c(Cl)cncc1Cl (stereo partly drawn) [Example 305, 1-(6-(5-((R)-1-(3,5-dichloropyridin-4-yl)ethoxy)-1H-indazol-3-yl)pyridazin-3-yl)-3-((tetrahydrofuran-2-yl)methyl)azetidin-3-amine] | 1 to 50 | 1 to 50 | – | – |
| C[C@@H](Oc1ccc2[nH]nc(-c3cnc(N4CC(N)(CCCO)C4)c(F)c3)c2c1)c1c(Cl)cncc1Cl [Example 307, (R)-3-(3-amino-1-(5-(5-(1-(3,5-dichloropyridin-4-yl)ethoxy)-1H-indazol-3-yl)-3-fluoropyridin-2-yl)azetidin-3-yl)propan-1-ol] | 1 to 50 | 1 to 50 | – | – |
| C[C@@H](Oc1ccc2[nH]nc(-c3cnc(N4CC(C)(NCC(=O)N(C)C)C4)c(F)c3)c2c1)c1c(Cl)cncc1Cl [Example 311, (R)-2-((1-(5-(5-(1-(3,5-dichloropyridin-4-yl)ethoxy)-1H-indazol-3-yl)-3-fluoropyridin-2-yl)-3-methylazetidin-3-yl)amino)-N,N-dimethylacetamide] | 1 to 50 | 1 to 50 | – | – |
| C[C@@H](Oc1ccc2[nH]nc(-c3ccc(N4CC(C)(NCC(F)F)C4)nn3)c2c1)c1c(Cl)cncc1Cl [Example 312, (R)-1-(6-(5-(1-(3,5-dichloropyridin-4-yl)ethoxy)-1H-indazol-3-yl)pyridazin-3-yl)-N-(2,2-difluoroethyl)-3-methylazetidin-3-amine] | 1 to 50 | 1 to 50 | – | – |
| C[C@@H](Oc1ccc2[nH]nc(-c3ccc(N4CC(C)(NCCC#N)C4)nn3)c2c1)c1c(Cl)cncc1Cl [Example 313, (R)-3-((1-(6-(5-(1-(3,5-dichloropyridin-4-yl)ethoxy)-1H-indazol-3-yl)pyridazin-3-yl)-3-methylazetidin-3-yl)amino)propane-nitrile] | 1 to 50 | 1 to 50 | – | – |
| COc1cc2[nH]nc(-c3cnc(N4CC[C@@](C)(N)C4)c(F)c3)c2cc1O[C@H](C)c1c(Cl)cncc1Cl [Example 315, (R)-1-(5-(5-((R)-1-(3,5-dichloropyridin-4-yl)ethoxy)-6-methoxy-1H-indazol-3-yl)-3-fluoropyridin-2-yl)-3-methylpyrrolidin-3-amine] | 1 to 50 | 1 to 50 | – | – |
| COCC1(N)CN(c2ncc(-c3n[nH]c4ccc(O[C@H](C)c5c(Cl)cncc5Cl)cc34)cc2F)C1 [Example 371, 1-[5-[5-[(1R)-1-(3,5-dichloro-4-pyridyl)ethoxy]-1H-indazol-3-yl]-3-fluoro-2-pyridyl]-3-(methoxy-methyl)aze-tidin-3-amine] | 1 to 50 | 1 to 50 | – | – |
| C[C@@H](Oc1ccc2[nH]nc(-c3ccc(N4CC(N)(CCCO)C4)nn3)c2c1)c1c(Cl)cncc1Cl [Example 372, (R)-3-(3-amino-1-(6-(5-(1-(3,5-dichloropyridin-4-yl)ethoxy)-1H-indazol-3-yl)pyridazin-3-yl)azetidin-3-yl)propan-1-ol] | 1 to 50 | 1 to 50 | – | – |
| C[C@H](O)CC1(N)CN(c2ccc(-c3n[nH]c4ccc(O[C@H](C)c5c(Cl)cncc5Cl)cc34)nn2)C1 [Example 373, (S)-1-(3-amino-1-(6-(5-((R)-1-(3,5-dichloropyridin-4-yl)ethoxy)-1H-indazol-3-yl)pyridazin-3-yl)azetidin-3-yl)propan-2-ol] | 1 to 50 | 1 to 50 | – | – |
| C[C@@H](O)CC1(N)CN(c2ccc(-c3n[nH]c4ccc(O[C@H](C)c5c(Cl)cncc5Cl)cc34)nn2)C1 [Example 374, (R)-1-(3-amino-1-(6-(5-((R)-1-(3,5-dichloropyridin-4-yl)ethoxy)-1H-indazol-3-yl)pyridazin-3-yl)azetidin-3-yl)propan-2-ol] | 1 to 50 | 1 to 50 | – | – |
| C[C@@H](Oc1ccc2[nH]nc(-c3cnc(N4CCC(N)(CS(C)(=O)=O)CC4)c(F)c3)c2c1)c1c(Cl)cncc1Cl [Example 375, (R)-1-(5-(5-(1-(3,5-dichloropyridin-4-yl)ethoxy)-1H-indazol-3-yl)-3-fluoropyridin-2-yl)-4-((methylsulfonyl)methyl)piperidin-4-amine] | 1 to 50 | 1 to 50 | – | – |
| COc1cc2[nH]nc(-c3ccc(N4CC(C)(N)C4)nc3)c2cc1O[C@H](C)c1c(Cl)cncc1Cl [Example 379, (R)-1-(5-(5-(1-(3,5-dichloropyridin-4-yl)ethoxy)-6-methoxy-1H-indazol-3-yl)pyridin-2-yl)-3-methylazetidin-3-amine] | 1 to 50 | 1 to 50 | – | – |
| COc1cc2[nH]nc(-c3ccc(N4CC[C@](C)(N)C4)nc3)c2cc1O[C@H](C)c1c(Cl)cncc1Cl [Example 381, (S)-1-(5-(5-((R)-1-(3,5-dichloropyridin-4-yl)ethoxy)-6-methoxy-1H-indazol-3-yl)pyridin-2-yl)-3-methyl-pyrrolidin-3-amine] | 1 to 50 | 1 to 50 | – | – |

Further lines, results first:

| Kd (FGFR1) [nM] | Kd (FGFR3) [nM] | Kd (FGFR1; [1]) [nM] | Kd (FGFR3; [1]) [nM] | Compound |
| --- | --- | --- | --- | --- |
| – | – | 1 to 50 | 1 to 50 | COc1cc2[nH]nc(-c3ccc(N4CCC(C)(N)CC4)nc3)c2cc1O[C@H](C)c1c(Cl)cncc1Cl [Example 382, (R)-1-(5-(5-(1-(3,5-dichloropyridin-4-yl)ethoxy)-6-methoxy-1H-indazol-3-yl)pyridin-2-yl)-4-methylpiperidin-4-amine] |
| – | – | 1 to 50 | 1 to 50 | COc1cc2[nH]nc(-c3cnc(N4CCC(C)(N)CC4)c(F)c3)c2cc1O[C@H](C)c1c(Cl)cncc1Cl [Example 383, (R)-1-(5-(5-(1-(3,5-dichloropyridin-4-yl)ethoxy)-6-methoxy-1H-indazol-3-yl)-3-fluoropyridin-2-yl)-4-methylpiperidin-4-amine] |
| – | – | 1 to 50 | 1 to 50 | C[C@@H](O)CC1(N)CN(c2ncc(-c3n[nH]c4ccc(O[C@H](C)c5c(Cl)cncc5Cl)cc34)cc2F)C1 [Example 385, (R)-1-(3-amino-1-(5-(5-((R)-1-(3,5-dichloropyridin-4-yl)ethoxy)-1H-indazol-3-yl)-3-fluoropyridin-2-yl)azetidin-3-yl)propan-2-ol] |
| – | – | 1 to 50 | 1 to 50 | COc1cc2[nH]nc(-c3cnc(N4CC[C@](C)(N)C4)c(F)c3)c2cc1O[C@H](C)c1c(Cl)cncc1Cl [Example 389, (S)-1-(5-(5-((R)-1-(3,5-dichloropyridin-4-yl)ethoxy)-6-methoxy-1H-indazol-3-yl)-3-fluoropyridin-2-yl)-3-methylpyrrolidin-3-amine] |
| – | – | 1 to 50 | 1 to 50 | COc1cc2[nH]nc(-c3ccc(N4CC(C)(N)C4)nn3)c2cc1O[C@H](C)c1c(Cl)cncc1Cl [Example 393, (R)-1-(6-(5-(1-(3,5-dichloropyridin-4-yl)ethoxy)-6-methoxy-1H-indazol-3-yl)pyridazin-3-yl)-3-methylazetidin-3-amine] |
| – | – | 1 to 50 | 1 to 50 | C[C@@H](Oc1ccc2[nH]nc(-c3cnc(N4CC(N)(CC(F)F)C4)c(F)c3)c2c1)c1c(Cl)cncc1Cl [Example 394, (R)-1-(5-(5-(1-(3,5-dichloropyridin-4-yl)ethoxy)-1H-indazol-3-yl)-3-fluoropyridin-2-yl)-3-(2,2-difluoro-ethyl)azetidin-3-amine] |
| – | – | 1 to 50 | 1 to 50 | C[C@@H](Oc1ccc2[nH]nc(-c3cnc(N4CCC(N)(CCS(C)(=O)=O)CC4)c(F)c3)c2c1)c1c(Cl)cncc1Cl [Example 395, (R)-1-(5-(5-(1-(3,5-dichloropyridin-4-yl)ethoxy)-1H-indazol-3-yl)-3-fluoropyridin-2-yl)-4-(2-(methylsulfonyl)ethyl) piperidin-4-amine] |
| – | – | 1 to 50 | 1 to 50 | C[C@@H](Oc1ccc2[nH]nc(-c3cnc(N4CC[C@](C)(N)C4)c(F)c3)c2c1)c1c(Cl)cncc1Cl [Example 396, (S)-1-(5-(5-((R)-1-(3,5-dichloropyridin-4-yl)ethoxy)-1H-indazol-3-yl)-3-fluoropyridin-2-yl)-3-methylpyrrolidin-3-amine] |
| – | – | 1 to 50 | 1 to 50 | C[C@@H](Oc1ccc2[nH]nc(-c3ccc(N4CC(N)(CC(F)F)C4)nn3)c2c1)c1c(Cl)cncc1Cl [Example 397, (R)-1-(6-(5-(1-(3,5-dichloropyridin-4-yl)ethoxy)-1H-indazol-3-yl)pyridazin-3-yl)-3-(2,2-difluoro-ethyl)azetidin-3-amine] |

Reference: patent US20250368666A1, “INDAZOLE COMPOUNDS” (TYRA BIOSCIENCES, INC., priority 2022, published 2025)
